Laboratory results: patent US11752210B2, “Sensitizing composition using electromagnetic waves for thermal therapy of cancers, and cancer therapy using same” (JINIS CO., LTD., priority 2013, dated 2023)
Where two headings read alike, the source gives them in different places. Values belong to the molecule of their own block, whether it stands above or below them.

Tests used:
apotransferrin = apotransferrin (Homo sapiens, UniProt P02787); conditions: apotransferrin 200 mg/dL, 37° C. 30 min
Experimental: In order to evaluate binding capacity of the metal ion to apotransferrin, transferrin binding capacity (Unsaturated Iron-Binding Capacity, UIBC) was measured as follows depending on the concentration of iron ion (ferric iron, FeIII+).
Specifically, in order to prepare iron ion aqueous solutions, 3.6 g of FeCl3 (Sigma Aldrich, USA) was dissolved in 400 ml of distilled water with stirring for 20 min or longer, and then the pH of the resulting solution was adjusted to 9 with continuous stirring while a 5M NaOH solution was added dropwise. When a red brownish precipitate appeared, it was stirred at 90° C. for 2 hr and was then centrifuged at 5,000 rpm for 5 min, thus obtaining a ferric hydroxide precipitate, which was then washed with distilled water and dried. The ferric hydroxide in powder form was dissolved in distilled water, yielding ferric hydroxide solutions having concentrations of […]. Each of the ferric hydroxide solutions at individual concentrations was added with 200 mg/dL of apotransferrin (Sigma Aldrich, USA), and mixed in a vortex for 1 min, followed by allowing the reaction between apotransferrin and iron ion to progress at 37° C. for 30 min.
In order to measure the unsaturated iron-binding capacity (UIBC) of apotransferrin, a Ferrozine colorimetric method was used. As the iron standard, ferrous chloride was prepared at a concentration of […] in hydroxylamine hydrochloride, and the reaction solution of apotransferrin and iron was prepared as a test group. Specifically, 2 ml of 0.5M Tris buffer (pH 8) was aliquoted into all test tubes. The blank test tube was filled with 1 ml of distilled water, the standard test tube was filled with 0.5 ml of distilled water and 0.5 ml of the iron standard, and the experimental test tube was filled with 0.5 ml of the reaction solution of apotransferrin and iron ion and 0.5 ml of the iron standard, followed by mixing in a vortex for 1 min.
A spectrophotometer was zeroed at 560 nm, and the absorbance A1 was measured. Next, a 16.6 mM Ferrozine hydroxylamine hydrochloride solution was placed in an amount of […] in each of the test tubes, followed by mixing in a vortex for 1 min. All the test tubes were cultured at 37° C. for 10 min, and the absorbance A2 at 560 nm was measured. The absorbance A560 at 560 nm was calculated by subtracting the absorbance A1 from the absorbance A2.
The unsaturated iron-binding capacity (UIBC) was calculated as follows. UIBC=[standard conc.]−[standard conc.]×Test A560/Standard A560

[1] = test system: NCI-H460-luc2 tumor xenograft; assay: Thermal cancer therapy with sensitizer, bioluminescence imaging of tumor size in the last week (Example 1, FIG. 12); format: in vivo, BALB/c athymic nude mice; conditions: i.v. 1 mg/kg metal ion-bound material or 20 mg/kg transferrin, 100 W 10 min, three times per week, four weeks
Experimental: Next, the potential to treat cancer was evaluated using the metal ion-bound material as the sensitizer upon thermal therapy. A lung cancer cell line NCI-H460-luc2 ([…] Sciences) was cultured, and 5×10^6 cells were subcutaneously injected into 6 to 8-week-old female BALB/c athymic nude mice (Damul Science), and the mice were bred for about 10 days so as to grow tumorous tissue to a size of 100 mm^3 or more, yielding the tumor xenograft animal models for the evaluation of cancer treatment effects. […] After 4 hr, thermal treatment was performed three times per week for a total of four weeks using a radio-frequency hyperthermia system (EHY-2000, Oncothermia) with an energy dose of 100 W for 10 min. As such, a non-treated group and a saline-treated group were set as controls. In order to analyze the size of tumorous tissue in the last week, bioluminescence imaging was performed. For bioluminescence of a luciferase-expressing cancer cell line NCI-H460-luc2, D-luciferin (Xenogen, USA) was intraperitoneally injected at a concentration of 150 mg luciferin/kg/d into the mice, the mice were anesthetized through inhalation using a mixture of isoflurane gas and oxygen, and luminous cancer cells were subjected to overlap photographing using a Xenogen imager (IVIS 200), and analyzed using Igor Pro imaging analysis software.

[2] = test system: NCI-H460-luc2 tumor xenograft; assay: Thermal cancer therapy with repeated sensitizer dosing, weekly bioluminescence imaging of tumor size over four weeks (Example 1, FIG. 13); format: in vivo, BALB/c athymic nude mice; conditions: i.v. three times per week, 0.1 ml of 0.2 mg/ml (iron dextran, iron sucrose) or 5 mg/ml (transferrin); 100 W 30 min or more; four weeks
Experimental: After 4 hr, thermal treatment for 30 min or more using a radio-frequency hyperthermia system (EHY-2000, Oncothermia) with an energy dose of 100 W was performed for a total of four weeks, and the size of tumorous tissue was monitored every week. […] In the group to which transferrin was administered, 0.1 ml of the transferrin aqueous solution having a concentration of 5 mg/ml was intravenously injected. As such, the non-treated group and the saline-treated group were used as controls.
In order to analyze the size of tumorous tissue, bioluminescence imaging was regularly performed at an interval of one week, and analysis was performed using Igor Pro imaging analysis software.

[3] = In vivo accumulation of metal ion in normal and tumorous tissue, ICP-MS (Test Example 5); parameters: species or system BALB/c athymic nude mice; concentration of iron ion (ICP-MS): unit not given here; conditions: 1 mg/kg i.v., after 24 hr
Experimental: In order to evaluate the accumulation of the administered metal ion in tumorous tissue through in vivo animal testing, tumor xenograft animal models were manufactured as follows. Specifically, a lung cancer cell line NCI-H460-luc2 (Califer Life Sciences) was cultured, and 5×10^6 cells were subcutaneously injected into 6- to 8-week-old female BALB/c athymic nude mice (Damul Science), and the mice were bred for about 10 days so as to grow tumorous tissue to a size of 100 mm^3 or more, yielding the tumor xenograft animal models.
After 24 hr, in order to carry out inductively coupled plasma mass spectrometry (ICP-MS), 1 g of each tissue was ground using a tissue grinder in an ice bath, and 1 ml of the ground solution was dried at −60° C. in a vacuum of 7 μmHg for 24 hr. The dried powder was added with 2 ml of 6N HCl, placed in a sealed glass reactor, and cultured in an incubator at 55° C. After 12 hr or longer, each sample was mixed in a vortex and then centrifuged at 1,000 rpm for 15 min, and the supernatant was dried with nitrogen gas, added with 1 ml of 0.01N HCl, mixed in a vortex, and then centrifuged at 1,000 rpm for 15 min. The supernatant was recovered, and the concentrations of the metal ions in the normal tissue and the tumorous tissue were measured through ICP-MS (Varian 800-MS, Palo Alto, US).

[4] = test system: NCI-H460-luc2 tumor xenograft; assay: Temperature of normal and tumorous tissue of tumor xenograft mice on application of electromagnetic waves after sensitizer (Example 1, FIGS. 9 to 11); format: in vivo, BALB/c athymic nude mice; conditions: i.v. iron sucrose 1 mg/kg or transferrin 20 mg/kg, 4 hr after administration, 100 W for 3 min
Experimental: To this end, a lung cancer cell line NCI-H460-luc2 (Califer Life Sciences) was cultured, and 5×10^6 cells were subcutaneously injected into 6 to 8-week-old female BALB/c athymic nude mice (Damul Science), and the mice were bred for about 10 days so as to grow tumorous tissue to a size of 100 mm^3 or more, yielding the tumor xenograft animal models for the evaluation of cancer treatment effects.
As the sensitizing composition for thermal therapy, iron sucrose was prepared in the same manner as in Test Example 1, and 0.1 ml of the iron sucrose aqueous solution having a concentration of 0.2 mg/ml was intravenously injected into the established tumor xenograft mice so as to reach a dose of 1 mg/kg.
As the sensitizing composition for thermal therapy, “iron ion-bound apotransferrin” (transferrin) was prepared in the same manner as in Test Example 3, and 0.1 ml of the transferrin aqueous solution having a concentration of 5 mg/ml was intravenously injected into the established tumor xenograft mice so as to reach a dose of 20 mg/kg.
As the control, saline was administered. 4 hr after administration, electromagnetic waves were applied in an energy dose of 100 W for 3 min using a radio-frequency hyperthermia system (EHY-2000, Oncothermia), and the temperatures of normal tissue and tumorous tissue were measured using a thermal imaging device (E60, Korea Rental, Korea).

apotransferrin, sequence (P02787 20-698): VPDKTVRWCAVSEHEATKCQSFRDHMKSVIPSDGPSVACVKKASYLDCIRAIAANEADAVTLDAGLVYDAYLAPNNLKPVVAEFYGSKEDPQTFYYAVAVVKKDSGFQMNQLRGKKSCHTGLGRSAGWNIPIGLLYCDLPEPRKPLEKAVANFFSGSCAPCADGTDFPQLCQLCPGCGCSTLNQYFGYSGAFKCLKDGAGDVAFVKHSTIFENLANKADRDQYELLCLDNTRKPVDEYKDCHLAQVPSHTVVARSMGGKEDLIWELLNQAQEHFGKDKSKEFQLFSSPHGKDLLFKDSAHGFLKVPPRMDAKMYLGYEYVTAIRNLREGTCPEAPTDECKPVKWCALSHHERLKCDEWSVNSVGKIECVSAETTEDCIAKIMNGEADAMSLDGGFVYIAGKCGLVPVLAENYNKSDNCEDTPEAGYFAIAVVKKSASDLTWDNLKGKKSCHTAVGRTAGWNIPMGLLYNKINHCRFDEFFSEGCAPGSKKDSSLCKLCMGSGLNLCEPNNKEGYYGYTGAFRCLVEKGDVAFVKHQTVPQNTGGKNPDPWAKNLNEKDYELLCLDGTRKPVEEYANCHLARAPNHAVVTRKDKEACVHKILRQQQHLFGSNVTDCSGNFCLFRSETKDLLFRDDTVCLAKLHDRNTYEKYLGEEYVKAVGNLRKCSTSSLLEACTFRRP

Molecule: [Fe+3].[OH-].[OH-].[OH-] [iron ion, ferric hydroxide]
UIBC (apotransferrin; Iron conc. 10 μg/dL): 498 µg/dL | UIBC (apotransferrin; Iron conc. 50 μg/dL): 481 µg/dL | UIBC (apotransferrin; Iron conc. 200 μg/dL): 332 µg/dL | UIBC (apotransferrin; Iron conc. 500 μg/dL): 119 µg/dL

Molecule: Iron dextran [reference compound]
cancer treatment effects through thermal therapy (size of tumorous tissue, bioluminescence imaging) [1]: excellent | growth of cancer upon thermal treatment using electromagnetic waves (bioluminescence imaging) [2]: significantly reduced

Fold increase of iron ion vs saline ([3]; Brain): 2.05 | concentration of iron ion (ICP-MS) ([3]; Brain): 46.2 ± 8.6 | Fold increase of iron ion vs saline ([3]; Heart): 3.08 | concentration of iron ion (ICP-MS) ([3]; Heart): 99.2 ± 2.8 | Fold increase of iron ion vs saline ([3]; Kidney): 1.05 | concentration of iron ion (ICP-MS) ([3]; Kidney): 59.8 ± 4.1 | Fold increase of iron ion vs saline ([3]; Liver): 2.26 | concentration of iron ion (ICP-MS) ([3]; Liver): 168.2 ± 37.3 | Fold increase of iron ion vs saline ([3]; Muscle): 0.98 | concentration of iron ion (ICP-MS) ([3]; Muscle): 28.9 ± 22.1 | Fold increase of iron ion vs saline ([3]; Stomach): 2.99 | concentration of iron ion (ICP-MS) ([3]; Stomach): 83.1 ± 27.7 | concentration of iron ion (ICP-MS) ([3]; Tumor): 44.4 ± 3.9 | Fold increase of iron ion vs saline ([3]; Tumor, 1 mg/kg): ≥ 3.3 | Fold increase of iron ion vs saline ([3]; Tumor, listed as Fe-Sucrose, 1 mg/kg): 3.29
Molecule: ferric hydroxide sucrose complex [Iron sucrose]
changes in the temperature before and after the application of electromagnetic waves ([4]; normal tissue): 1 °C | changes in the temperature before and after the application of electromagnetic waves ([4]; tumorous tissue): 1.9 °C | cancer treatment effects through thermal therapy (size of tumorous tissue, bioluminescence imaging) [1]: excellent | growth of cancer upon thermal treatment using electromagnetic waves (bioluminescence imaging) [2]: significantly reduced
